What is called TGI is the concentration at which net growth stops. A high value points to less potent growth arrest. Usually GI50 stands for the concentration giving 50% growth inhibition.

TGI and GI50 data for 23 molecules are collected here from PubChem BioAssay (NCI).

Molecules are shown by their SMILES. Values joined by “and” are separate entries in the source; they are usually repeats but may differ in a detail not shown here. Equal values may be shown once.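 Cells were grown in 96-well plates and exposed to each compound for 48 hours at five concentrations; endpoints were interpolated linearly between bracketing concentrations, or set to the highest concentration if not reached. GI50 = concentration required for 50% inhibition of growth. At the TGI there is no net growth.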 Where only a bound is given, the exact number is not on record here.

For one experiment, the system named is SW-620 colon. The experiment is described as follows: DTP human tumour cell line panel, 48 h.
`CC(C)(C)c1ccc2c(c1)CNCCNCc1cc(C(C)(C)C)ccc1OCC1(CO2)COc2ccc(C(C)(C)C)cc2CNCCNCc2cc(C(C)(C)C)ccc2OC1` had a TGI of 3.56 µM.
`Nc1cc(CO)cc(Nc2nc3ccc(Cl)cc3c3[nH]c4ccccc4c23)c1` returned a TGI of 29.3 µM.
In turn, `CCN1CC2=C(NC(=S)NC2c2ccc(Cl)cc2)/C(=C/c2ccc(Cl)cc2)C1` (centres undefined) came in with a TGI above 100 µM.
As to `CCOC(=O)C1Cc2[nH]c3ccccc3c2C(C)C1C` (centres undefined), the TGI amounted to 33.6 µM.
In turn, `NC(=O)N/N=C(\Cc1nc2ccc(Cl)cc2[nH]c1=O)C(=O)Nc1ccc(Cl)cc1Cl` registered a TGI above 100 µM.
Molecule `OCCCCCNc1c2ccccc2nc2ccccc12` yielded a TGI of 15.9 µM.
`CCOP(=O)(OCC)/C(C#N)=C/c1cnc(-c2ccccc2)[nH]1` gave a TGI above 100 µM.
On to `CC(=O)OCC1OC(OC(C)(C)CC/C=C(\C)[C@@H]2C/C=C(\C)CC/C=C(\C)CC2)C(O)C(O)C1OC(C)=O` (some centres undefined), for which the TGI is > 31.6 µM and 50.7 µM.
Still for that read-out and setting: the same measure for `O=C(/C=C/c1ccc(O)c([N+](=O)[O-])c1)CC(=O)/C=C/c1ccc(O)c([N+](=O)[O-])c1`: above 100 µM; for `OCC1CCCCCCCCCCC12SCCCS2` (centres undefined): above 100 µM.
In the case of `CC(C)=CCOC(=O)C(C)=[N+]=[N-]`, the TGI was above 100 µM.
As for `Cn1cc2ccccc2c1-c1nc(N)nc(F)n1`, the TGI is above 100 µM.
The molecule `CC1=C(O)C(=O)[C@@H]2O[C@@H]2C1=O` returned a TGI of 13.4 µM.
For `CC(O[Si](c1ccccc1)(c1ccccc1)C(C)(C)C)[C@H](NC(=O)OC(C)(C)C)C(=O)O[Si](c1ccccc1)(c1ccccc1)C(C)(C)C` (some centres undefined), the TGI came to 32.1 µM.
`Cc1nc2c(sc(=S)n2-c2ccccc2)c2nc3ncccc3n12` gave a TGI above 100 µM.
`Cc1ccc(-c2c(C#N)c(-c3ccccc3)n(NS(=O)(=O)c3ccccc3)c(=O)c2C#N)cc1` yielded a total growth inhibition concentration (TGI) above 100 µM.
The same measure, in the same setting: next, `COc1ccc(C(C#N)NNC(=O)c2ccccc2O)cc1OC` (centres undefined): above 100 µM; `O=c1[nH]n2c(=O)cc[nH]c2c1-c1nnns1`: above 100 µM.
`N.N.N.O=[N+]([O-])[O-].O=[N+]([O-])[O-].O=[N+]([O-])[O-].O=[N+]([O-])[O-].[Co+3]` yielded a TGI above 100 µM.

A further experiment has as its system HOP-62 NSCLC. The experiment is described as follows: DTP human tumour cell line panel, 48 h.
`NC(C(F)(F)F)(C(F)(F)F)P(=O)(Cc1ccccc1)Cc1ccccc1` yielded a TGI above 100 µM.
Take `S=C(N/N=C\C=N/NC(=S)N1CCCCC1)N1CCCCC1`: the TGI is above 21.1 µM.
Molecule `C=C1CC(COc2cc(=O)oc3ccccc23)(c2ccccc2)OC1=O` (centres undefined) displayed a concentration for total growth inhibition (TGI) of 22.9 µM.
Same read-out and setting: next, `Cc1cc(N(CCC#N)CCC#N)ccc1/C=N/NC(=O)c1cc(Cl)ccc1O`: above 100 µM; `CC(C)(C)c1ccc2c(c1)CNCCNCc1cc(C(C)(C)C)ccc1OCC1(CO2)COc2ccc(C(C)(C)C)cc2CNCCNCc2cc(C(C)(C)C)ccc2OC1`: 2.66 µM; `Nc1cc(CO)cc(Nc2nc3ccc(Cl)cc3c3[nH]c4ccccc4c23)c1`: 27.6 µM.
The molecule `CCN1CC2=C(NC(=S)NC2c2ccc(Cl)cc2)/C(=C/c2ccc(Cl)cc2)C1` (centres undefined) came in with a TGI above 100 µM.
Same read-out and setting: the same measure for `OCCCCCNc1c2ccccc2nc2ccccc12`: 6.68 µM.
With `CCOP(=O)(OCC)/C(C#N)=C/c1cnc(-c2ccccc2)[nH]1`, the TGI is above 100 µM.
`CC(=O)OCC1OC(OC(C)(C)CC/C=C(\C)[C@@H]2C/C=C(\C)CC/C=C(\C)CC2)C(O)C(O)C1OC(C)=O` (some centres undefined): the GI50 was > 82.7 µM and 16.8 µM; the total growth inhibition concentration (TGI) is > 100 µM and 30.4 µM.
`O=C(/C=C/c1ccc(O)c([N+](=O)[O-])c1)CC(=O)/C=C/c1ccc(O)c([N+](=O)[O-])c1` came in with a TGI above 100 µM.
On the same count and under the same terms, next, `OCC1CCCCCCCCCCC12SCCCS2` (centres undefined): above 100 µM; `CC(C)=CCOC(=O)C(C)=[N+]=[N-]`: above 100 µM; `Cn1cc2ccccc2c1-c1nc(N)nc(F)n1`: above 100 µM.
In turn, `CC1=C(O)C(=O)[C@@H]2O[C@@H]2C1=O` returned a total growth inhibition concentration (TGI) of 100 µM.
Take `CC(O[Si](c1ccccc1)(c1ccccc1)C(C)(C)C)[C@H](NC(=O)OC(C)(C)C)C(=O)O[Si](c1ccccc1)(c1ccccc1)C(C)(C)C` (some centres undefined): the TGI worked out at 34.2 µM.
For the molecule `Cc1nc2c(sc(=S)n2-c2ccccc2)c2nc3ncccc3n12`, the TGI stood at 90.3 µM.
In turn, `Cc1ccc(-c2c(C#N)c(-c3ccccc3)n(NS(=O)(=O)c3ccccc3)c(=O)c2C#N)cc1` returned a TGI above 100 µM.
Take `COc1ccc(C(C#N)NNC(=O)c2ccccc2O)cc1OC` (centres undefined): the TGI was above 100 µM.
Regarding `O=c1[nH]n2c(=O)cc[nH]c2c1-c1nnns1`, the TGI was above 100 µM.
In the case of `N.N.N.O=[N+]([O-])[O-].O=[N+]([O-])[O-].O=[N+]([O-])[O-].O=[N+]([O-])[O-].[Co+3]`, the TGI is above 100 µM.

A further experiment deals with TK-10 renal. The experiment is described as follows: DTP human tumour cell line panel, 48 h.
Molecule `NC(C(F)(F)F)(C(F)(F)F)P(=O)(Cc1ccccc1)Cc1ccccc1` had a TGI above 100 µM.
Still for that read-out and setting: next, `S=C(N/N=C\C=N/NC(=S)N1CCCCC1)N1CCCCC1`: above 100 µM; `C=C1CC(COc2cc(=O)oc3ccccc23)(c2ccccc2)OC1=O` (centres undefined): 3.89 µM.
In turn, `Cc1cc(N(CCC#N)CCC#N)ccc1/C=N/NC(=O)c1cc(Cl)ccc1O` returned a concentration for total growth inhibition (TGI) above 100 µM.
As to `CC(C)(C)c1ccc2c(c1)CNCCNCc1cc(C(C)(C)C)ccc1OCC1(CO2)COc2ccc(C(C)(C)C)cc2CNCCNCc2cc(C(C)(C)C)ccc2OC1`, the TGI was determined as 3.32 µM.
As to `Nc1cc(CO)cc(Nc2nc3ccc(Cl)cc3c3[nH]c4ccccc4c23)c1`, the TGI worked out at 21.3 µM.
Take `CCN1CC2=C(NC(=S)NC2c2ccc(Cl)cc2)/C(=C/c2ccc(Cl)cc2)C1` (centres undefined): the concentration for total growth inhibition (TGI) is above 100 µM.
In turn, `CCOC(=O)C1Cc2[nH]c3ccccc3c2C(C)C1C` (centres undefined) came in with a TGI of 76 µM.
